# Assay results as given in US9212178B2, “Substituted pyrimidine compounds and their use as SYK inhibitors” (Genosco, priority 2013, dated 2015).
# Read-outs that look alike come from different tables or passages of the source.
# Key:
# full-length human SYK = full-length human SYK (Homo sapiens (Human), UniProt P43405); test: Inhibition of enzymatic SYK kinase activity (LANCE Ulight TK peptide); format: biochemical
# Procedure: Compounds of the present invention were assayed to measure their capacity to inhibit a spleen tyrosine kinase (SYK).
# Compounds of the invention were initially diluted to 10 mM in 100% DMSO (CALBIOCHEM™) for storage and made into kinase buffer solution to create a compound concentration ranging from 1 uM and 10 uM. Serial dilutions of compounds of the invention were dispensed into a 96-well plate (GREINER BIOSCIENCES™) at 6 μL each. Purified full-length human SYK (CARNA BIOSCIENCES™) were diluted in kinase buffer and added to the compound solutions and pre-incubated for 30 minutes at room temperature. […] The reaction mixture was incubated for 1 hour. Following the incubation, the stop solution made with EDTA, water, and Lance detection buffer ([…]™) was added (12 μL each) to stop phosphorylation.
# THP-1 cells = test: SYK-dependent TNF-α release assay (IgG stimulation), ELISA; format: cell-based; settings: THP-1 cells on human IgG-coated plate, 18 hours; read-out: TNF-α release inhibition, IgG stimulation IC50
# Procedure: In order to address cellular potency of Compounds of Formula (I), TNF-a production was measured on treatment of a series of concentration of SYK inhibitor in THP-1 cells.
# For SYK-dependent TNF-α release assay (i.e., via IgG stimulation), THP-1 cells derived from human monocytic cells were obtained from the American Type Culture Collection (ATCC, Manassas, Va.). This cell line was maintained with a Roswell Park Memorial Institute (RPMI) medium (GIBCO) containing 10% fetal bovine serum (FBS; GIBCO) and 0.05 mM solution of 2-mercaptoethanol. The THP-1 cells were seeded at 1×10^5 cells/100 μL/well into human IgG (10 ng/well, INVITROGEN)-coated 96 well culture plate, and serially diluted compound was then added. After an 18 hours of incubation period at 37° C., supernatants were collected for the determination of the TNF-α level by enzyme-linked immunosorbent assay (ELISA), and the remaining cells were subjected to an MTT (yellow tetrazolium salt) assay to determine the cytotoxic effects of the compound. The IC50 value of the test compound was calculated at Gradpad Prism 5 unless otherwise specified.
# [1] = ATP at Km (15 uM), 30 min pre-incubation
Compound,IC50 (full-length human SYK; [1]) [nM],IC50 (THP-1 cells) [nM],IC50 (full-length human SYK) [nM]
"O=C(c1cn(CC(F)F)c2ccc(Nc3nccc(-n4cc(CN5C[C@H](O)CO5)cn4)n3)cc12)C1CC1 [Compound 33, (S)-cyclopropyl(1-(2,2-difluoroethyl)-5-(4-(4-((4-hydroxyisoxazolidin-2-yl)methyl)-1H-pyrazol-1-yl)pyrimidin-2-ylamino)-1H-indol-3-yl)methanone]",5.34,60,–
"CCn1cc(C(=O)C2CC2)c2cc(Nc3ncc(C)c(-n4cc(CN5C[C@H](O)CO5)c(C)n4)n3)ccc21 [Compound 22, (S)-cyclopropyl(1-ethyl-5-(4-(4-((4-hydroxyisoxazolidin-2-yl)methyl)-3-methyl-1H-pyrazol-1-yl)-5-methylpyrimidin-2-ylamino)-1H-indol-3-yl)methanone]",79.3,–,–
"Cc1nn(-c2ccnc(Nc3ccc4c(c3)c(C(=O)C(F)(F)F)cn4C)n2)cc1CN1C[C@H](O)CO1 [Compound 3, (S)-2,2,2-trifluoro-1-(5-(4-(4-((4-hydroxyisoxazolidin-2-yl)methyl)-3-methyl-1H-pyrazol-1-yl)pyrimidin-2-ylamino)-1-methyl-1H-indol-3-yl)ethanone]",2.82,48,–
"O=C(c1cn(CCF)c2ccc(Nc3nccc(-n4cc(CN5C[C@H](O)CO5)cn4)n3)cc12)C1CC1 [Compound 32, (S)-cyclopropyl(1-(2-fluoroethyl)-5-(4-(4-((4-hydroxyisoxazolidin-2-yl)methyl)-1H-pyrazol-1-yl)pyrimidin-2-ylamino)-1H-indol-3-yl)methanone]",3.52,53,–
"Cc1nn(-c2ccnc(Nc3ccc4c(c3)c(C(=O)C(F)F)cn4C)n2)cc1CN1C[C@@H](O)CO1 [Compound 10, (R)-2,2-difluoro-1-(5-(4-(4-((4-hydroxyisoxazolidin-2-yl)methyl)-3-methyl-1H-pyrazol-1-yl)pyrimidin-2-ylamino)-1-methyl-1H-indol-3-yl)ethanone]",24.4,–,–
(S)-cyclopropyl(1-ethyl-5-(5-fluoro-4-(3-((4-hydroxyisoxazolidin-2-yl)methyl)-4-methyl-1H-pyrrol-1-yl)pyrimidin-2-ylamino)-1H-indol-3-yl)methanone [Compound 21],230,–,–
"Cc1nn(-c2ccnc(Nc3ccc4[nH]cc(C(=O)C5CC5)c4c3)n2)cc1CN1C[C@H](O)CO1 [Compound 12, (S)-cyclopropyl(5-(4-(4-((4-hydroxyisoxazolidin-2-yl)methyl)-3-methyl-1H-pyrazol-1-yl)pyrimidin-2-ylamino)-1H-indol-3-yl)methanone]",13.5,120,–
"Cc1nn(-c2ccnc(Nc3ccc4c(c3)c(C(=O)C3CC3)cn4CC(F)(F)F)n2)cc1CN1C[C@H](O)CO1 [Compound 15, (S)-cyclopropyl(5-(4-(4-((4-hydroxyisoxazolidin-2-yl)methyl)-3-methyl-1H-pyrazol-1-yl)pyrimidin-2-ylamino)-1-(2,2,2-trifluoroethyl)-1H-indol-3-yl)methanone]",2.98,66,–
"Cc1nn(-c2ccnc(Nc3ccc4[nH]cc(C(=O)C(F)(F)F)c4c3)n2)cc1CN1C[C@H](O)CO1 [Compound 7, (S)-2,2,2-trifluoro-1-(5-(4-(4-((4-hydroxyisoxazolidin-2-yl)methyl)-3-methyl-1H-pyrazol-1-yl)pyrimidin-2-ylamino)-1H-indol-3-yl)ethanone]",8.28,60,–
"CCn1cc(C(=O)C2CC2)c2cc(Nc3nccc(-n4cc(CN5CC(C)(O)CO5)c(C)n4)n3)ccc21 (stereo not shown) [Compound 13, cyclopropyl(1-ethyl-5-(4-(4-((4-hydroxy-4-methylisoxazolidin-2-yl)methyl)-3-methyl-1H-pyrazol-1-yl)pyrimidin-2-ylamino)-1H-indol-3-yl)methanone]",17.3,273,–
"Cc1nn(-c2ccnc(Nc3ccc4c(c3)c(C(=O)C(C)C)cn4C)n2)cc1CN1C[C@H](O)CO1 [Compound 2, (S)-1-(5-(4-(4-((4-hydroxyisoxazolidin-2-yl)methyl)-3-methyl-1H-pyrazol-1-yl)pyrimidin-2-ylamino)-1-methyl-1H-indol-3-yl)-2-methylpropan-1-one]",8.63,67,–
"Cc1cnc(Nc2ccc3c(c2)c(C(=O)C2CC2)cn3C)nc1-n1cc(CN2C[C@H](O)CO2)c(C)n1 [Compound 19, (S)-cyclopropyl(5-(4-(4-((4-hydroxyisoxazolidin-2-yl)methyl)-3-methyl-1H-pyrazol-1-yl)-5-methylpyrimidin-2-ylamino)-1-methyl-1H-indol-3-yl)methanone]",271,821,–
"CCn1cc(C(=O)C2CC2)c2cc(Nc3nccc(-n4cc(C)c(CN5C[C@H](O)CO5)c4)n3)ccc21 [Compound 29, (S)-cyclopropyl(1-ethyl-5-(4-(3-((4-hydroxyisoxazolidin-2-yl)methyl)-4-methyl-1H-pyrrol-1-yl)pyrimidin-2-ylamino)-1H-indol-3-yl)methanone]",–,70,69.5
"Cc1nn(-c2ccnc(Nc3ccc4c(c3)c(Cl)c(C)n4C)n2)cc1CN1C[C@H](O)CO1 [Compound 31, (S)-2-((1-(2-(3-chloro-1,2-dimethyl-1H-indol-5-ylamino)pyrimidin-4-yl)-3-methyl-1H-pyrazol-4-yl)methyl)isoxazolidin-4-ol]",–,197,–
"O=C(c1cn(CC(F)(F)F)c2ccc(Nc3nccc(-n4cc(CN5C[C@H](O)CO5)cn4)n3)cc12)C1CC1 [Compound 34, (S)-cyclopropyl(5-(4-(4-((4-hydroxyisoxazolidin-2-yl)methyl)-1H-pyrazol-1-yl)pyrimidin-2-ylamino)-1-(2,2,2-trifluoroethyl)-1H-indol-3-yl)methanone]",5.8,55,–
Cc1nn(-c2ccnc(Nc3ccc4c(c3)c(C(=O)C3CC3)cn4C)n2)cc1CN1CC(C)(O)CCO1 (stereo not shown) [Compound 28],106,–,–
"CCOC(=O)n1cc(C(C)=O)c2cc(Nc3nccc(-n4cc(CN5C[C@H](O)CO5)c(C)n4)n3)ccc21 [Compound 5, (S)-ethyl 3-acetyl-5-(4-(4-((4-hydroxyisoxazolidin-2-yl)methyl)-3-methyl-1H-pyrazol-1-yl)pyrimidin-2-ylamino)-1H-indole-1-carboxylate]",–,293,–
"CCn1cc(C(=O)C2CC2)c2cc(Nc3ncc(F)c(-n4cc(CN5C[C@H](O)CO5)c(C)n4)n3)ccc21 [Compound 20, (S)-cyclopropyl(1-ethyl-5-(5-fluoro-4-(4-((4-hydroxyisoxazolidin-2-yl)methyl)-3-methyl-1H-pyrazol-1-yl)pyrimidin-2-ylamino)-1H-indol-3-yl)methanone]",66.2,–,–
"Cc1cnc(Nc2ccc3c(c2)c(C(=O)C(F)(F)F)cn3C)nc1-n1cc(CN2C[C@H](O)CO2)c(C)n1 [Compound 18, (S)-2,2,2-trifluoro-1-(5-(4-(4-((4-hydroxyisoxazolidin-2-yl)methyl)-3-methyl-1H-pyrazol-1-yl)-5-methylpyrimidin-2-ylamino)-1-methyl-1H-indol-3-yl)ethanone]",159,–,–
"Cc1nn(-c2nc(Nc3ccc4c(c3)c(C(=O)C(F)(F)F)cn4C)ncc2Cl)cc1CN1C[C@H](O)CO1 [Compound 17, (S)-1-(5-(5-chloro-4-(4-((4-hydroxyisoxazolidin-2-yl)methyl)-3-methyl-1H-pyrazol-1-yl)pyrimidin-2-ylamino)-1-methyl-1H-indol-3-yl)-2,2,2-trifluoroethanone]",132,–,–
